Results reported in ChEMBL document CHEMBL1138611, “Oxadiazolylindazole sodium channel modulators are neuroprotective toward hippocampal neurones” (J Med Chem, 2009).

How the values were obtained:
[1] = Inhibition of voltage-gated sodium channel in Wistar rat forebrain synaptosomes assessed as inhibition of [14C]guanidium ion flux; type: subcellular, Brain
Cytochrome P450 1A2 = biological target: T1, Cytochrome P450 1A2 (Homo sapiens, UniProt P05177); assay: Inhibition of human recombinant CYP1A2; type: ADME
T1 sequence (P05177 whole entry): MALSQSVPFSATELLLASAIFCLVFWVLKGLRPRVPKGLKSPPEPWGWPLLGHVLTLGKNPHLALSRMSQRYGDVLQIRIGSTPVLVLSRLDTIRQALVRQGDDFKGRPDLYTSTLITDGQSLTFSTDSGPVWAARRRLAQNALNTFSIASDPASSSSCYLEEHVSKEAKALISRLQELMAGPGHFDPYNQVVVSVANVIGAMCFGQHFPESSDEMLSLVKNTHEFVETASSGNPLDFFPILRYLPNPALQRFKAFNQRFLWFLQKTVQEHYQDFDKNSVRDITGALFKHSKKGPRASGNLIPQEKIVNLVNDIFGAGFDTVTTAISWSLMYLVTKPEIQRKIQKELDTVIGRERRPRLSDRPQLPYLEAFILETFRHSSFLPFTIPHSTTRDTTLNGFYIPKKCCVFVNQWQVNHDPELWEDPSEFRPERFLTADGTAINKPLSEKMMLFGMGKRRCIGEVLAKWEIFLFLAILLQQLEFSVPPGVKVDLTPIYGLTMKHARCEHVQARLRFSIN

Hippocampus = assay: Neuroprotective activity in Wistar rat hippocampal slices assessed as ATP concentration at 50 uM relative to tetrodotoxin; type: functional
Cytochrome P450 2D6 = Cytochrome P450 2D6 (Homo sapiens, UniProt P10635); assay: Inhibition of human recombinant CYP2D6; type: ADME
[2] = Displacement of [3H]BW202W92 from voltage-gated sodium channel in Wistar rat forebrain synaptosomes by liquid scintillation counting; type: subcellular, Brain

Cytochrome P450 2D6, sequence (P10635 whole entry): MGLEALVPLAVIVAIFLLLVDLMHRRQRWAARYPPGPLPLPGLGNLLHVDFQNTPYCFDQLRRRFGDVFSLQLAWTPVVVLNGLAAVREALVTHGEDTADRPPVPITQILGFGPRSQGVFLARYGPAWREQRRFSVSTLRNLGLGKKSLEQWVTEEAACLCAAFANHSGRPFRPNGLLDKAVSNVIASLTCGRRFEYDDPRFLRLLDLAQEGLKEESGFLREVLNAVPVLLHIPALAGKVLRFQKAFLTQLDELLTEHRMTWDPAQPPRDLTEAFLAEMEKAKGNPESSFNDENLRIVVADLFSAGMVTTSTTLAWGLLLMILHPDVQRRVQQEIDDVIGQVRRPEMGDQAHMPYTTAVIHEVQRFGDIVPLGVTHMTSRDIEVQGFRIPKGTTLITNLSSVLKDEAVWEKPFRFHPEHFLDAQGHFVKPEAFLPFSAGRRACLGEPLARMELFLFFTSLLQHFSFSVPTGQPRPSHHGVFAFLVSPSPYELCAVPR

Structure (SMILES) | IC50 [1] [µM] | IC50 (Cytochrome P450 1A2) [µM] | Activity (Hippocampus) [%] | IC50 (Cytochrome P450 2D6) [µM] | IC50 [2] [µM]
Cc1cccc(Cn2nc(-c3nc(CN)no3)c3ccccc32)c1 | 28 | 0.084 | 45 | 3.96 | 
NCc1noc(-c2nn(Cc3ccc4ccccc4c3)c3ccccc23)n1 | 20 |  | 11 |  | 
Cc1ccc(Cn2nc(-c3nc(CN)no3)c3ccccc32)cc1 | 17 |  | 34 |  | 
CC(C)(C)OC(=O)NCc1noc(-c2c3ccccc3nn2Cc2cccc(Cl)c2)n1 | 4 |  | 0 |  | 
CC(=O)n1nc(-c2nc(CN)no2)c2ccccc21 | > 300 |  | 24 | > 10 | 
COc1ccc(Cn2nc(-c3nc(CN)no3)c3ccccc32)cc1 | 38 |  | 35 |  | 
CC(=O)Nc1ccc(Cn2nc(-c3nc(CNC(=O)OC(C)(C)C)no3)c3ccccc32)cc1 | 15 | 5.92 | 47 | 13 | 
NCc1noc(-c2c3ccccc3nn2CCc2ccccc2)n1 | 19 | 0.36 | 54 | 4.27 | 
Cc1cc(C)cc(Cn2nc3ccccc3c2-c2nc(CN)no2)c1 | 14 |  | 35 |  | 
CC(C)(C)OC(=O)NCc1noc(-c2nn(Cc3ccc4c(c3)OCO4)c3ccccc23)n1 | 1 | 4.86 | 0 | 3.3 | 
CC(C)(C)OC(=O)NCc1noc(-c2nn(CCc3ccccc3)c3ccccc23)n1 | 5 |  | 0 |  | 
NCc1noc(-c2nn(CCOc3ccccc3)c3ccccc23)n1 | 30 |  | 40 |  | 
COc1ccc(S(=O)(=O)n2nc(-c3nc(CN)no3)c3ccccc32)cc1OC | 102 | > 10 | 2 | 2.9 | 
COc1ccc(S(=O)(=O)n2nc(-c3nc(CNC(=O)OC(C)(C)C)no3)c3ccccc32)cc1OC | 2 |  | 10 | 20 | 
Cc1cc(C)cc(Cn2nc(-c3nc(CNC(=O)OC(C)(C)C)no3)c3ccccc32)c1 | 4 |  | 0 |  | 
O=C(NCc1noc(-c2nn(Cc3ccccc3)c3ccccc23)n1)OCc1ccccc1 | 5 |  | 12 |  | 
COc1cc(Cn2nc(-c3nc(CN)no3)c3ccccc32)cc(OC)c1OC | 178 |  | 28 |  | 
Cc1cc(C)cc(Cn2nc3ccccc3c2-c2nc(CNC(=O)OC(C)(C)C)no2)c1 | 12 |  | 0 |  | 
CC(C)(C)OC(=O)NCc1noc(-c2nn(CCOc3ccccc3)c3ccccc23)n1 | 6 |  | 8 |  | 
CC(=O)n1nc(-c2nc(CNC(=O)OC(C)(C)C)no2)c2ccccc21 | 132 |  | 4 | > 10 | 

Structure (SMILES) | IC50 [1] [µM] | IC50 (Cytochrome P450 1A2) [µM] | Activity (Hippocampus) [%] | IC50 (Cytochrome P450 2D6) [µM] | IC50 [2] [µM]
CC(C)(C)OC(=O)NCc1noc(-c2nn(Cc3ccccc3)c3ccccc23)n1 | 5 |  | 19 |  | 
CC(C)(C)OC(=O)NCc1noc(-c2n[nH]c3ccccc23)n1 | 96 | 0.79 | 0 | > 10 | 
NCc1noc(-c2nn(Cc3cc(F)cc(F)c3F)c3ccccc23)n1 | 35 |  | 59 |  | 
O=S(=O)(NCc1noc(-c2nn(Cc3ccccc3)c3ccccc23)n1)c1ccccc1 | 5 |  | 20 |  | 
Cc1ccccc1Cn1nc(-c2nc(CNC(=O)OC(C)(C)C)no2)c2ccccc21 | 3 |  | 0 |  | 
Cc1ccccc1Cn1nc(-c2nc(CN)no2)c2ccccc21 | 26 |  | 46 |  | 
NCc1noc(-c2nn(Cc3ccccc3Cl)c3ccccc23)n1 | 20 |  | 43 |  | 
NCc1noc(-c2c3ccccc3nn2Cc2ccc3c(c2)OCO3)n1 | 34 |  | 55 |  | 
CC(C)(C)OC(=O)NCc1noc(-c2nn(Cc3cccc(C(F)(F)F)c3)c3ccccc23)n1 | 8 |  | 3 |  | 
CC(C)(C)OC(=O)NCc1noc(-c2nn(Cc3ccc(C(N)=O)cc3)c3ccccc23)n1 | 24 |  | 29 | > 10 | 
NCc1noc(-c2nn(Cc3cccc(Cl)c3)c3ccccc23)n1 | 14 |  | 50 |  | 
NCc1noc(-c2c3ccccc3nn2Cc2cccc(Cl)c2)n1 | 24 |  | 17 |  | 110
CC(C)(C)OC(=O)NCc1noc(-c2nn(Cc3cc(F)cc(F)c3F)c3ccccc23)n1 | 1 |  | 0 |  | 
Cc1nc(-c2ccc(Cn3nc(-c4nc(CNC(=O)OC(C)(C)C)no4)c4ccccc43)cc2)no1 | 1 |  |  |  | 
NCc1noc(-c2nn(Cc3ccc(C(N)=O)cc3)c3ccccc23)n1 | 195 |  | 8 | 1.3 | 
CC(=O)Nc1ccc(Cn2nc(-c3nc(CN)no3)c3ccccc32)cc1 | 309 |  | 10 |  | 
NCc1noc(-c2n[nH]c3ccccc23)n1 | 2190 | 0.21 | 10 | 1 | 
CC(C)(C)OC(=O)NCc1noc(-c2nn(Cc3ccccc3Cl)c3ccccc23)n1 | > 300 |  | 9 |  | 
CC(C)(C)OC(=O)NCc1noc(-c2c3ccccc3nn2Cc2ccc3c(c2)OCO3)n1 | 3 |  | 0 |  | 
NCc1noc(-c2nn(Cc3cccc(C(F)(F)F)c3)c3ccccc23)n1 | 26 |  | 58 |  | 

Structure (SMILES) | IC50 [1] [µM] | IC50 (Cytochrome P450 1A2) [µM] | Activity (Hippocampus) [%] | IC50 (Cytochrome P450 2D6) [µM] | IC50 [2] [µM]
NCc1noc(-c2nn(Cc3ccc(-c4cn[nH]c4)cc3)c3ccccc23)n1 | 63 |  | 26 |  | 
CC(C)(C)OC(=O)NCc1noc(-c2c3ccccc3nn2CCc2ccccc2)n1 | 85 |  | 0 |  | 
CC(C)(C)OC(=O)NCc1noc(-c2c3ccccc3nn2Cc2ccccc2)n1 | 174 |  | 25 |  | 
CC(C)(C)OC(=O)NCc1noc(-c2nn(Cc3cccc(Cl)c3)c3ccccc23)n1 | 4 |  | 12 |  | 
CC(C)(C)OC(=O)NCc1noc(-c2nn(Cc3ccc4ccccc4c3)c3ccccc23)n1 | 0.4 |  | 0 |  | 
Cc1cc(C)cc(Cn2nc(-c3nc(CN)no3)c3ccccc32)c1 | 15 | 0.062 | 43 | 3.73 | 
Cc1nc(-c2ccc(Cn3nc(-c4nc(CN)no4)c4ccccc43)cc2)no1 | 58 |  |  |  | 
COc1ccc(Cn2nc(-c3nc(CNC(=O)OC(C)(C)C)no3)c3ccccc32)cc1 | 4 |  | 0 |  | 
Cc1cccc(Cn2nc3ccccc3c2-c2nc(CNC(=O)OC(C)(C)C)no2)c1 | 151 |  | 0 |  | 
NCc1noc(-c2nn(Cc3ccc4c(c3)OCO4)c3ccccc23)n1 | 30 |  | 44 |  | 
CC(C)(C)OC(=O)NCc1noc(-c2nn(Cc3ccc(-c4cn[nH]c4)cc3)c3ccccc23)n1 | 16 |  | 20 | > 10 | 
COc1cc(Cn2nc(-c3nc(CNC(=O)OC(C)(C)C)no3)c3ccccc32)cc(OC)c1OC | 195 |  | 0 |  | 
Cc1cccc(Cn2nc3ccccc3c2-c2nc(CN)no2)c1 | 26 |  | 37 |  | 
CC(C)(C)OC(=O)NCc1noc(-c2nn(Cc3cccc(OC(F)(F)F)c3)c3ccccc23)n1 | 0.9 |  | 0 |  | 
Cc1ccc(Cn2nc(-c3nc(CNC(=O)OC(C)(C)C)no3)c3ccccc32)cc1 | 2 |  | 0 |  | 
NCc1noc(-c2nn(Cc3cccc(OC(F)(F)F)c3)c3ccccc23)n1 | 26 |  | 33 |  | 
Cc1cccc(Cn2nc(-c3nc(CNC(=O)OC(C)(C)C)no3)c3ccccc32)c1 | 1 |  | 0 | 20 | 
O=C(NCc1noc(-c2nn(Cc3ccccc3)c3ccccc23)n1)c1ccccc1 | 18 |  | 23 |  | 
NCc1noc(-c2nn(CCc3ccccc3)c3ccccc23)n1 | 35 | 0.034 | 49 | 1.32 | 
